Measured values: patent publication US20060258599A1, “Methods and composition for the treatment of cystic fibrosis and related illnesses” (priority 2005, published 2006)
Like-named read-outs stand apart in the source and are kept apart here.

How the values were obtained:
[1] = tested on: glutathione S-transferase; settings: cited from earlier work; for glutathione S-transferase activity: HT29 cells
[2] = tested on: individual who is a carrier of the CF gene; experiment: Fatty acid profile blood tests before and after 10-day oral isothiocyanate (individual study); type: in vivo, human
Description: Example 1. Individual study based on 10 mg consumption of BITC. An isothiocyanate of 10 mg was taken orally per day for 10 days by an individual who is a carrier of the CF gene. Blood tests were performed before and after the 10-day study to determine the fatty acid levels before and after administration of the isothiocyanate.

[3] = +10 days vs baseline, 10 mg orally per day

## S=C=NCc1ccccc1 [BITC, benzyl isothiocyanate]
[1]; HT29 cells cultures exposed to BITC
  effect on glutathione S-transferase activity (in words): statistically significant increase
[1]; 5 μmol/L of BITC
  glutathione S-transferase activity: ~0.51 μmol min^−1 mg proteins^−1
[1]; 25 μmol/L of BITC
  glutathione S-transferase activity: ~0.74 μmol min^−1 mg protein^−1
[2]; [3]
  Arachidic Acid, % Change: −8.93%
  Arachidonic Acid, % Change: −3.31%
  DHA C22:6W3, % Change: 36.29%
  DPA C22 6W3, % Change: −5.19%
  DPA C22:6W6, % Change: −8.7%
  DTA C22 4W6T, % Change: 6.45%
  Docosanoic Acid C22:0, % Change: 22.59%
  Docosanoic Acid C22:1, % Change: 0%
  EPA, % Change: 18.57%
  Hexacosanoic Acid C24:0, % Change: 33.33%
  Hexacosanoic Acid C28:1, % Change: 29.17%
  Mead Acid, % Change: 0%
  Nervonic Acid, % Change: −2.47%
  Phytanic Acid, % Change: 18.8%
  Priatanic Acid, % Change: 11.11%
  Tetracosanoic Acid, % Change: 24.6%
  Tiete Tebrana Ratio, % Change: 0%
  Total Fatty Acids, % Change: 1.87%
  Total Monounsaturated, % Change: 12%
  Total Polyunsaturated, % Change: 4.35%
  Total Saturated, % Change: 0%
  Total w3, % Change: 20%
  Total w61, % Change: 2.44%
  h-g-Linoleic Acid, % Change: −9.88%
[2]; blood test after 10 mg orally per day for 10 days, baseline 0.031
  Tiete Tebrana Ratio, +10 days: 0.031
[2]; blood test after 10 mg orally per day for 10 days, baseline 0.09
  Priatanic Acid, +10 days: 0.1
[2]; blood test after 10 mg orally per day for 10 days, baseline 0.3
  Hexacosanoic Acid C24:0, +10 days: 0.4
[2]; blood test after 10 mg orally per day for 10 days, baseline 0.48
  Hexacosanoic Acid C28:1, +10 days: 0.62
[2]; blood test after 10 mg orally per day for 10 days, baseline 0.5
  Total w3, +10 days: 0.6
[2]; blood test after 10 mg orally per day for 10 days, baseline 1.33
  Phytanic Acid, +10 days: 1.58
[2]; blood test after 10 mg orally per day for 10 days, baseline 2.5
  Total Monounsaturated, +10 days: 2.8
[2]; blood test after 10 mg orally per day for 10 days, baseline 3
  Docosanoic Acid C22:1, +10 days: 3
[2]; blood test after 10 mg orally per day for 10 days, baseline 3.5
  Total Saturated, +10 days: 3.5
[2]; blood test after 10 mg orally per day for 10 days, baseline 4.1
  Total w61, +10 days: 4.2
[2]; blood test after 10 mg orally per day for 10 days, baseline 4.6
  Total Polyunsaturated, +10 days: 4.8
[2]; blood test after 10 mg orally per day for 10 days, baseline 10.7
  Total Fatty Acids, +10 days: 10.9
[2]; blood test after 10 mg orally per day for 10 days, baseline 23
  DPA C22:6W6, +10 days: 21
[2]; blood test after 10 mg orally per day for 10 days, baseline 25
  Mead Acid, +10 days: 25
[2]; blood test after 10 mg orally per day for 10 days, baseline 31
  DTA C22 4W6T, +10 days: 33
[2]; blood test after 10 mg orally per day for 10 days, baseline 44.3
  Tetracosanoic Acid, +10 days: 55.2
[2]; blood test after 10 mg orally per day for 10 days, baseline 56
  Arachidic Acid, +10 days: 51
[2]; blood test after 10 mg orally per day for 10 days, baseline 60.2
  Docosanoic Acid C22:0, +10 days: 73.8
[2]; blood test after 10 mg orally per day for 10 days, baseline 70
  EPA, +10 days: 83
[2]; blood test after 10 mg orally per day for 10 days, baseline 77
  DPA C22 6W3, +10 days: 73
[2]; blood test after 10 mg orally per day for 10 days, baseline 81
  Nervonic Acid, +10 days: 79
[2]; blood test after 10 mg orally per day for 10 days, baseline 243
  h-g-Linoleic Acid, +10 days: 219
[2]; blood test after 10 mg orally per day for 10 days, baseline 248
  DHA C22:6W3, +10 days: 338
[2]; blood test after 10 mg orally per day for 10 days, baseline 847
  Arachidonic Acid, +10 days: 819
